Reference: patent publication US5210077A, “Antibodies to cytokinins having a glycosylated isoprenoid side chain and immunoassay methods” (The United States of America as represented by the …, priority 1989, dated 1993)
Entries after “also recorded” stand apart in the source; their conditions may differ. Where two headings read alike, the source gives them in different places.

Key:
[1] = system: monoclonal antibody ATCC HB 9658; assay: Inhibition ELISA, specificity of monoclonal antibody ATCC HB 9658; format: binding, mouse; details: for Relative I50 (relative to E-zeatin-O-β-D-glucopyranoside) / IC50: antibody ATCC HB 9658; for IC50: read-out: I50
Experimental: (§1) Antibodies were screened and further analyzed by solid-phase enzyme immunoassays as follows. Polyvinylchloride assay plates (Costar, Cambridge, MA), were coated with appropriate serum albumin conjugate (made with the O-glucoside derivative or the oxidized zeatin riboside, 10 μg/mL in PBS, 50 μL/well) for 4 h at room temperature or overnight at 4°. Plates were then washed with PBS containing 0.05% "Tween"-20 (PBS-Tween). Remaining sites were blocked by incubation for 1 h with 100 μL/well of 1% BSA in PBS-"Tween" solution (BSA-PBS-"Tween"). Plates were then rewashed and stored for up to 3 weeks at 4° in PBS containing sodium azide.
(§2) Direct binding (titration) and inhibition assays were performed with antibodies dissolved in BSA-PBS-"Tween", a diluent selected to minimize nonspecific interactions with the solid phase, and to suppress binding to the solid phase by antibodies specific for serum albumin.
Inhibition assay format was used to assess antibody specificity. […] In both formats, samples (50 μL/well) were generally applied to plates in triplicate and were incubated 1 h, with shaking. Plates were emptied, washed, rinsed with distilled water, and drained. HRP-labeled rabbit anti-mouse IgG (Zymed Laboratories, South San Francisco, CA) was added at an appropriate dilution (50 μL/well) and incubated for 1 h with shaking. The plates were then washed as before, and bound HRP detected by addition of 50 μL/well of substrate (1 mM ABTS and 6.7 mM H2 O2 in 60 mM sodium citrate buffer, pH 4.2). The absorbance was determined at 415 nm with a microplate reader (Model 308, Bio-Tek, Winooski, VT), generally after 15 min. In some cases, reactions were terminated by addition of 50 μL/well of 10% sodium dodecylsulfate.
Calculations were performed as follows. Assay data was fit to a logistic model. Asymptotic values were determined by inspection of the assay curves, and other coefficients were determined by linear regression. […] Relative affinities are expressed using E-zeatin riboside or E-zeatin-O-β-D-glucopyranoside as standards.

[2] = system: monoclonal antibody ATCC HB 9658; assay: Competition ELISA with HRP conjugate of 9-(2-carboxyethyl)zeatin-O-β-D-glucopyranoside and monoclonal antibody ATCC HB 9658; format: binding, mouse; details: for IC50: read-out: I50
Experimental: Competition ELISA using cytokinin conjugates of HRP was performed using polystyrene assay plates coated with mouse monoclonal antibodies specific for cytokinins. […] Immediately before use, assay plates were coated with 1 μg/mL of monoclonal IgG in BSA-PBS-Tween. Samples were mixed with an appropriate concentration of cytokinin-HRP conjugate and applied to assay wells in replicate (100 μL/well). After 1 h, wells were drained, washed, and rinsed. Bound conjugate was detected with ABTS substrate solution and quantified by determining absorbance at 415 nm. Calculations were performed as follows. Assay data was fit to a logistic model. Asymptotic values were determined by inspection of the assay curves, and other coefficients were determined by linear regression. […] Relative affinities are expressed using E-zeatin riboside or E-zeatin-O-β-D-glucopyranoside as standards.

[3] = system: mouse polyclonal antibodies; assay: Inhibition ELISA for the mouse polyclonal antibodies; format: binding; details: for binding by the mouse polyclonal antibody (in words): inhibition ELISA; for Antibody Bound (%): inhibition ELISA with hapten, None = 100
Experimental: Mouse antibodies were elicited in BALB/c mice by two intraperitoneal inoculations at 3-week intervals with the bovine serum albumin conjugate of E-9-(2-carboxyethyl)zeatin-O-β-D-glucopyranoside emulsified in complete Freund's adjuvant. The dosage was 50-80 μg of conjugate in 0.1-0.2 mL. The mice were bled 1 week after the second injection, and sera were obtained, and tested for antibody.
as §1, §2
Inhibition assay format was used to assess antibody specificity. Antibody at an appropriate dilution determined by titration to give between 50 and 100% of maximal binding was mixed with hapten solution and preincubated for 1 h at room temperature prior to application to the coated wells. In both formats, samples (50 μL/well) were generally applied to plates in triplicate and were incubated 1 h, with shaking. Plates were emptied, washed, rinsed with distilled water, and drained. HRP-labeled rabbit anti-mouse IgG (Zymed Laboratories, South San Francisco, CA) was added at an appropriate dilution (50 μL/well) and incubated for 1 h with shaking. The plates were then washed as before, and bound HRP detected by addition of 50 μL/well of substrate (1 mM ABTS and 6.7 mM H2 O2 in 60 mM sodium citrate buffer, pH 4.2). The absorbance was determined at 415 nm with a microplate reader (Model 308, Bio-Tek, Winooski, VT), generally after 15 min. In some cases, reactions were terminated by addition of 50 μL/well of 10% sodium dodecylsulfate.

Compound	IC50 ([1]; inhibition ELISA) [µM]	IC50 [2] [µM]	binding by antibody of clone 240 / ATCC HB 9658 (in words) [1]	binding reduced relative to zeatin-O-β-D-glucopyranoside ([1]; inhibition ELISA, FIG. 4)	binding by antibody of clone 240 / ATCC HB 9658 (in words) ([1]; listed as E-zeatin-O-β-D-glucopyranoside)	binding by antibody of clone 240 / ATCC HB 9658 (in words) ([1]; listed as zeatin-O-β-D-glucopyranoside)	Relative I50 (relative to E-zeatin-O-β-D-glucopyranoside) ([1]; inhibition ELISA)	Relative I50 (relative to E-zeatin-O-β-D-glucopyranoside) [2]	binding by the mouse polyclonal antibody (in words) [3]	Antibody Bound (%) [3] [%]
C/C(=C\CNc1ncnc2c1ncn2[C@@H]1O[C@H](CO)[C@@H](O)[C@H]1O)CO [9-ribosylzeatin]	–	–	do not bind	–	–	–	–	–	–	–
C/C(=C\CNc1ncnc2c1ncn2CCC(=O)O)CO[C@@H]1O[C@H](CO)[C@@H](O)[C@H](O)[C@H]1O [Carboxyethylzeatin-O-β-D-glucopyranoside, E-9-(2-carboxyethyl)zeatin-O-β-D-glucopyranoside]	–	–	–	–	–	–	–	–	binds	76 ± 1
C/C(=C\CNc1ncnc2[nH]cnc12)CO [E-Zeatin, E-zeatin]	> 100	> 100	does not bind significantly; also recorded: do not bind	at least 10,000 fold	–	–	> 1100	> 4800	do not bind	99 ± 3
CC(=CCNc1ncnc2[nH]cnc12)COC1OC(CO)C(O)C(O)C1O [E-Zeatin-O-β-D-glucopyranoside, E-zeatin-O-β-D-glucopyranoside]	0.087	0.021	–	–	bind	binds	1	1	–	–
CC(C)=CCNc1ncnc2nc[nH]c12 [Isopentenyladenine, N^6-2-isopentenyladenine]	> 1000	> 100	–	–	–	–	> 11000	> 4800	–	–
C/C(=C\CNc1ncnc2c1ncn2[C@@H]1O[C@H](CO)[C@@H](O)[C@H]1O)CO[C@@H]1O[C@H](CO)[C@@H](O)[C@H](O)[C@H]1O [O-β-D-Glucopyranosyl-E-zeatin-9-riboside]	0.3	0.035	–	–	–	–	3.4	1.7	–	–
C/C(=C\CN1C(=O)c2ccccc2C1=O)CO[C@@H]1O[C@H](CO)[C@@H](O)[C@H](O)[C@H]1O [PBG, E-2-methyl-4-phthalimidobut-2-enyl-β-D-glucopyranoside]	1.2	0.49	–	–	–	–	14	23	–	–

Continued, in another order:

IC50 ([1]; inhibition ELISA) [µM]	IC50 [2] [µM]	binding by antibody of clone 240 / ATCC HB 9658 (in words) [1]	binding reduced relative to zeatin-O-β-D-glucopyranoside ([1]; inhibition ELISA, FIG. 4)	binding by antibody of clone 240 / ATCC HB 9658 (in words) ([1]; listed as E-zeatin-O-β-D-glucopyranoside)	binding by antibody of clone 240 / ATCC HB 9658 (in words) ([1]; listed as zeatin-O-β-D-glucopyranoside)	Compound	Relative I50 (relative to E-zeatin-O-β-D-glucopyranoside) ([1]; inhibition ELISA)	Relative I50 (relative to E-zeatin-O-β-D-glucopyranoside) [2]	binding by the mouse polyclonal antibody (in words) [3]	Antibody Bound (%) [3] [%]
> 1000	> 100	–	–	–	–	CC(CO)CCNc1ncnc2nc[nH]c12 (racemic) [Dihydrozeatin, (RS)-dihydrozeatin]	> 11000	> 4800	–	–
> 100	> 1000	do not bind	–	–	–	C/C(=C\CNc1ncnc2c1ncn2[C@@H]1O[C@H](CO)[C@@H](O)[C@H](O)[C@H]1O)CO [E-Zeatin-9-β-D-glucopyranoside]	> 1100	> 48000	–	–
–	> 1000	–	–	–	–	CO[C@@H]1O[C@H](CO)[C@@H](O)[C@H](O)[C@H]1O [β-Methylglucoside, β-methyl-D-glucopyranoside]	–	> 48000	–	–
